Laboratory results published in patent US20230009608A1, “GRK2 INHIBITORS AND USES THEREOF” (Cygnal Therapeutics, Inc., priority 2020, published 2023).
Read-outs that look alike come from different tables or passages of the source.

Columns and labels:
GRK2 = biological target: T1, GRK2 (Homo sapiens, UniProt P25098); assay: GRK2 Inhibition Assay (TR-FRET, Example 7); assay type: biochemical
T1 construct: purchased SignalChem A14-10G
T1 sequence (P25098 1-689): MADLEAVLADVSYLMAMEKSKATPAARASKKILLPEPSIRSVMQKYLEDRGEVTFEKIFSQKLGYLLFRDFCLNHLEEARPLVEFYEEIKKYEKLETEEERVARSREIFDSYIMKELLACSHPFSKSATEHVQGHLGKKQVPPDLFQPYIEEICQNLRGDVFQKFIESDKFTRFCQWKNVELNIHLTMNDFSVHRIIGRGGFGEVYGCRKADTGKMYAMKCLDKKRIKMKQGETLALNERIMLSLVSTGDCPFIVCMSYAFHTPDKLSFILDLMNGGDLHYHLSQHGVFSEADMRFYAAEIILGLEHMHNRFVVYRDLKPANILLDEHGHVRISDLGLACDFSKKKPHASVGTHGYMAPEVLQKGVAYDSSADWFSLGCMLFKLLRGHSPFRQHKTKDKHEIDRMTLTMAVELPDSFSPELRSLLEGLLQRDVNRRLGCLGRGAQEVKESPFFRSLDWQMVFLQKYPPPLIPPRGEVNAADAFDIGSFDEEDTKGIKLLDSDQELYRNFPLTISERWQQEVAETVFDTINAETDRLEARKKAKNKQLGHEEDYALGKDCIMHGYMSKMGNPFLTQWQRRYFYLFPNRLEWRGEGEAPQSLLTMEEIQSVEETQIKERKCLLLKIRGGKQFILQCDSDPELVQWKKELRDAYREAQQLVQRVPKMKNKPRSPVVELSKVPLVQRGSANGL
Method: Enzyme GRK2 (1 nM final concentration) was diluted in 25 mMv HEPES, 10 mM MgCl2, 2 mM DTT, 0.01% Tween-20, and 1 mM EGTA. Then the GRK2 mixture was added into ProxiPlate-384 white plate and pre-incubated for 30 min with test compounds at room temperature. ATP (7 μM final concentration) and Ulight TopoIIα (50 nM final concentration) were added into the assay plate to initiate the reaction and the mixture was incubated at room temperature for 90 min. Then, Eu anti-TopoIIα (0.12 nM final concentration), BSA (0.01% final concentration), and EDTA (11 mMv final concentration) in LANCE assay buffer were added into each well. After 60 min incubation time at room temperature, TR-FRET signal was measured by EnVision plate reader.

[1] = tested on: PAXF1657 control empty vector cell line; assay: 7-day proliferation assay, PAXF1657 control empty vector cell line (Example 9); assay type: cell-based; conditions: 168 h; Cell Line: PAXF1657 empty vector (EV) cell line; 7-day; read-out: C: 7-day proliferation assay: IC50 GeoMean
Outline: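 Isogenic PAXF1657 pairs differing in GRK2 level (stable cDNA overexpression or CRISPR knockout, each with matched control) are seeded and allowed to attach overnight. Inhibitors span 30 μM-0.0002 μM in 0.3% DMSO for 3 plus 4 days at 37° C, 5% CO2, with a medium change between.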

[2] = Enzyme Assay B, TR-FRET (Example 7), read-out: B: Enzymatic GRK2: IC50 (nM) (Example 7)
[3] = TR-FRET GRK2 enzyme assay, read-out: B: Enzymatic GRK2: IC50 (nM) (Example 7)

Row | IC50 (GRK2; [2]) | IC50 (GRK2; [3]) | Compound | also measured
1 | 79 nM | – | CCc1cnccc1CNC(=O)c1cccc(NCc2nnc(-c3ccncc3Cl)n2C)c1 | IC50 [1]: > 30000 nM
2 | 2.6 nM | – | Cn1c(CNc2cccc(C(=O)N[C@H]3CCOc4ccc(Br)cc43)c2)nnc1-c1ccncn1 | IC50 [1]: 42.6 nM
3 | – | 8.3 nM | [2H]C([2H])(Nc1cccc(C(=O)N[C@H]2CCOc3ccccc32)c1)c1nnc(-c2ccccn2)n1C | IC50 [1]: 2650 nM
4 | 2 nM | – | Cn1c(CNc2cccc(C(=O)N[C@@H]3CCOc4ccc(F)cc43)c2)nnc1-c1ccncn1 | IC50 [1]: 96.2 nM
5 | 2.1 nM | – | CCCn1c(CNc2cccc(C(=O)NCc3ccc(OC)cc3F)c2)nnc1-c1ccncn1 | IC50 [1]: > 30000 nM
6 | 63 nM | – | Cn1c(CNc2cc(C(=O)N[C@H]3CCOc4c(Cl)cccc43)ccn2)nnc1-c1ccncn1 | IC50 [1]: > 30000 nM
7 | 2.9 nM | – | O=C(NCc1cccc2c1OCC2)c1cccc(NCc2nnc(-c3ccncc3)[nH]2)c1 | IC50 [1]: > 30000 nM
8 | < 0.51 nM | – | O=C(NCc1cnc2ccccn12)c1cccc(NCc2nnc(-c3ccncn3)n2CCO)c1 | IC50 [1]: 580 nM
9 | 65 nM | – | C[C@H](NC(=O)c1ccnc(NCc2nnc(-c3ccncn3)n2C)c1)c1ncccc1Cl | IC50 [1]: > 30000 nM
10 | 0.98 nM | – | O=C(NCc1cccnc1C(F)(F)F)c1cccc(NCc2nnc(-c3ccncn3)n2CCO)c1 | IC50 [1]: > 30000 nM
11 | – | 5.7 nM | Cn1c(CNc2cccc(C(=O)N[C@H](C#N)c3c(F)cccc3Cl)c2)nnc1-c1ccncn1 | –
12 | – | – | O=C(NCCc1cccc(OS(=O)(=O)F)c1)c1cccc(NCc2nnc(-c3ccncc3)[nH]2)c1 | IC50 (GRK2): 210 nM
13 | 4400 nM | – | CNc1cc(-c2nnc(CNc3cccc(C(=O)NCc4c(F)cccc4F)c3)n2C)ncn1 | –
14 | 170 nM | – | Cn1c(CNc2cccc(C(=O)N[C@H]3CCOc4ccccc43)c2)nnc1-c1ccncc1Cl | –
15 | – | 7.8 nM | Cn1c(CNc2cccc(C(=O)N[C@H]3COc4c(Cl)cccc43)c2)nnc1-c1ccncn1 | –
16 | – | 110 nM | CCc1cnccc1CNC(=O)c1cccc(NCc2nnc(-c3ccncn3)n2[C@@H]2CC[C@H](NC)C2)c1 | –
17 | – | 230 nM | CCc1cnccc1CNC(=O)c1cccc(NCc2nnc(-c3ccncn3)n2[C@@H]2CC[C@@H](NC)C2)c1 | –

Row | IC50 (GRK2; [2]) | IC50 (GRK2; [3]) | Compound | also measured
18 | 5.5 nM | – | CCc1cnccc1CNC(=O)c1cccc(NCc2nnc(-c3ccncn3)n2CCCO)c1 | –
19 | 6.3 nM | – | O=C(NC1(c2ccccc2)CCOCC1)c1cccc(NCc2nnc(-c3ccncn3)n2CCO)c1 | –
20 | 0.82 nM | – | CCc1cnccc1CNC(=O)c1cccc(NCc2nnc(-c3ccncn3)n2CCO)c1 | –
21 | – | 7.8 nM | COc1ccc([C@@H](C#N)NC(=O)c2cccc(NCc3nnc(-c4ccncn4)n3C)c2)c(OC)c1 | –
22 | 660 nM | – | CNCCCn1c(CNc2cccc(C(=O)NCc3c(F)cccc3F)c2)nnc1-c1ccncn1 | –
23 | – | 5.1 nM | Cn1c(CNc2cccc(C(=O)N[C@@H](C#N)c3c(F)cccc3Cl)c2)nnc1-c1ccncn1 | –
24 | 130 nM | – | O=C(NC1(c2ccccc2)CCOCC1)c1cccc(NCc2nnc(-c3ccncc3)n2CCO)c1 | –
25 | 330 nM | – | O=C(NC1(c2ccccc2)CCOCC1)c1cccc(NCc2nnc(-c3ccncc3)[nH]2)c1 | –
26 | 280 nM | – | CNCCCn1c(CNc2cccc(C(=O)NCc3cccnc3C(F)(F)F)c2)nnc1-c1ccncn1 | –
27 | – | 1000 nM | CCc1cnccc1CNC(=O)c1cccc(NCc2nnc(-c3ccncn3)n2[C@@H]2CCC[C@@H](NC)C2)c1 | –
28 | – | 4.1 nM | Cn1c(CNc2cccc(C(=O)N[C@@H](C#N)c3ccccc3Br)c2)nnc1-c1ccncn1 | –
29 | – | 100 nM | COc1ccccc1[C@H](NC(=O)c1cccc(NCc2nnc(-c3ccncn3)n2C)c1)c1nccn1C | –
30 | – | 3900 nM | CCc1cnccc1CNC(=O)c1cccc(NCc2nnc(-c3ccncn3)n2[C@H]2CCC[C@@H](NC)C2)c1 | –
31 | – | 4.5 nM | Cn1c(CNc2cccc(C(=O)N[C@H](C#N)c3ccccc3Br)c2)nnc1-c1ccncn1 | –
32 | > 10000 nM | – | CN(Cc1cccnc1C(F)(F)F)C(=O)c1cccc(NCc2nnc(-c3ccncn3)n2C)c1 | –
33 | 12 nM | – | Cn1c(CNc2cc(C(=O)NCc3cccc4c3OCC4)ccn2)nnc1-c1ccncn1 | –
34 | – | 28 nM | Cn1c(CNc2cccc(C(=O)N[C@@H]3COc4c(Cl)cccc43)c2)nnc1-c1ccncn1 | –
